For this assay, the target named is T1, His tagged full-length PTP1B protein (Homo sapiens, UniProt P18031).
T1 construct: made in house
T1 sequence (P18031 with tags, fused parts or gaps): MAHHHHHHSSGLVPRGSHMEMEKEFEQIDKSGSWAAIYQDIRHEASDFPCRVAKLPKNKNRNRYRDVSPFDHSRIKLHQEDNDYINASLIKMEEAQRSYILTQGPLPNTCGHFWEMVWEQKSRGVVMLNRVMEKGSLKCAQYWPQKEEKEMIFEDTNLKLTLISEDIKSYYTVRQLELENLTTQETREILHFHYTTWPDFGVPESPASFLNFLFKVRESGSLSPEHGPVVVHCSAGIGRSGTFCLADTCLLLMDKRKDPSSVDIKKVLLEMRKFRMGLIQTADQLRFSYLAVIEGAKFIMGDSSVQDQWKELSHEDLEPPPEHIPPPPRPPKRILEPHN
Kind of assay: Mobility Shift Assay (MSA) used to determine potency of PTP1B inhibitors. In kind it is biochemical. To be noted: Table 2. As for the experimental part: The enzymatic assay used to determine activity is a mobility shift assay using a LabChip EZ Reader by Caliper Life Sciences. The enzymatic reaction was carried out in assay buffer (50 mM HEPES pH 7.5, 1 mM EGTA, 10 mM EDTA, 0.01% Tween® 20, and 2 mM DTT). […] The enzyme (at 0.5 nM) was incubated with compound for 10 minutes at room temperature. […] The % inhibition was then used to calculate the IC50 values.

SMILES strings stand for the structures.

Consider `O=C1CN(c2c(O)cc3ccc(C4=CCN(S(=O)(=O)C5CC5)CC4)cc3c2F)S(=O)(=O)N1` [Compound 297, 5-{7-[1-(cyclopropanesulfonyl)-1,2,3,6-tetrahydropyridin-4-yl]-1-fluoro-3-hydroxynaphthalen-2-yl}-1λ^6,2,5-thiadiazolidine-1,1,3-trione], for which the 50% inhibitory concentration (IC50) lay in the range of 1 to 10 nM.

Take `CC(C)NCCOc1ccc2cc(O)c(N3CC(=O)NS3(=O)=O)c(F)c2c1` [Compound 145, 5-(1-fluoro-3-hydroxy-7-{2-[(propan-2-yl)amino]ethoxy}naphthalen-2-yl)-1λ^6,2,5-thiadiazolidine-1,1,3-trione]: the IC50 was 10 to 100 nM.

On to `O=C1CN(c2c(O)cc3ccc(C4=CCOCC4)cc3c2F)S(=O)(=O)N1` [Compound 264, 5-[7-(3,6-dihydro-2H-pyran-4-yl)-1-fluoro-3-hydroxynaphthalen-2-yl]-1λ^6,2,5-thiadiazolidine-1,1,3-trione], for which the concentration for half-maximal inhibition (IC50) fell in the range of 10 to 100 nM.

For `O=C1CN(c2c(O)cc3ccc(C4CCNCC4)cc3c2F)S(=O)(=O)N1` [Compound 299, 5-[1-fluoro-3-hydroxy-7-(piperidin-4-yl)naphthalen-2-yl]-1λ^6,2,5-thiadiazolidine-1,1,3-trione], the half-inhibitory concentration (IC50) lay within 10 to 100 nM.

Consider `CNCC(C)(C)CCOc1ccc2cc(O)c(N3CC(=O)NS3(=O)=O)c(F)c2c1` [Compound 163, 5-{7-[3,3-dimethyl-4-(methylamino)butoxy]-1-fluoro-3-hydroxynaphthalen-2-yl}-1λ^6,2,5-thiadiazolidine-1,1,3-trione], for which the half-inhibitory concentration (IC50) is > 100 nM.

For the compound `COCCCOc1ccc2cc(O)c(N3CC(=O)NS3(=O)=O)c(F)c2c1` [Compound 247, 5-[1-fluoro-3-hydroxy-7-(3-methoxypropoxy)naphthalen-2-yl]-1λ^6,2,5-thiadiazolidine-1,1,3-trione], the IC50 was in the range of 1 to 10 nM.

Consider `[2H]c1c(O)c(N2C([2H])([2H])C(=O)NS2(=O)=O)c(F)c2cc(OC)ccc12` [Compound 106, 5-[1-fluoro-3-hydroxy-7-methoxy(4-^2H)naphthalen-2-yl](4,4-2H2)-1λ^6,2,5-thiadiazolidine-1,1,3-trione], for which the IC50 was 1 to 10 nM.

`COC(C)(C)CCOc1ccc2cc(O)c(N3CC(=O)NS3(=O)=O)c(F)c2c1` [Compound 170, 5-[1-fluoro-3-hydroxy-7-(3-methoxy-3-methylbutoxy)naphthalen-2-yl]-1λ^6,2,5-thiadiazolidine-1,1,3-trione]: the half-maximal inhibitory concentration (IC50) lay within 1 to 10 nM.

Take `COc1ccc(-c2ccc3cc(O)c(N4CC(=O)NS4(=O)=O)c(F)c3c2)s1` [Compound 227, 5-[1-fluoro-3-hydroxy-7-(5-methoxythiophen-2-yl)naphthalen-2-yl]-1λ^6,2,5-thiadiazolidine-1,1,3-trione]: the half-maximal inhibitory concentration (IC50) was > 100 nM.

For the compound `O=C1CN(c2c(O)cc3ccc(OCCOC4CCC4)cc3c2F)S(=O)(=O)N1` [Compound 214, 5-{7-[2-(cyclobutyloxy)ethoxy]-1-fluoro-3-hydroxynaphthalen-2-yl}-1λ^6,2,5-thiadiazolidine-1,1,3-trione], the 50% inhibitory concentration (IC50) was in the range of 1 to 10 nM.

With `COc1ccc2c(Br)c(O)c(N3CC(=O)NS3(=O)=O)c(F)c2c1` [Compound 243, 5-(4-bromo-1-fluoro-3-hydroxy-7-methoxynaphthalen-2-yl)-1λ^6,2,5-thiadiazolidine-1,1,3-trione], the IC50 was > 100 nM.

For the compound `CC(C)(C#N)CCOc1ccc2cc(O)c(N3CC(=O)NS3(=O)=O)c(F)c2c1` [Compound 120, 4-{[8-fluoro-6-hydroxy-7-(1,1,4-trioxo-1λ^6,2,5-thiadiazolidin-2-yl)naphthalen-2-yl]oxy}-2,2-dimethylbutanenitrile], the IC50 was < 1 nM.

As for `O=C1CN(c2c(O)cc3ccc(C4=CCN(C(=O)C5CC5)C4)cc3c2F)S(=O)(=O)N1` [Compound 237, 5-{7-[1-(cyclopropanecarbonyl)-2,5-dihydro-1H-pyrrol-3-yl]-1-fluoro-3-hydroxynaphthalen-2-yl}-1λ^6,2,5-thiadiazolidine-1,1,3-trione], the IC50 is < 1 nM.

As for `O=C1CN(c2c(O)cc3ccc(C4=CCN(S(=O)(=O)c5ccsc5)C4)cc3c2F)S(=O)(=O)N1` [Compound 314, 5-{1-fluoro-3-hydroxy-7-[1-(thiophene-3-sulfonyl)-2,5-dihydro-1H-pyrrol-3-yl]naphthalen-2-yl}-1λ^6,2,5-thiadiazolidine-1,1,3-trione], the 50% inhibitory concentration (IC50) is < 1 nM.

In the case of `CCP(=O)(CC)CCCOc1ccc2cc(O)c(N3CC(=O)NS3(=O)=O)c(F)c2c1` [Compound 146, 5-{7-[3-(diethylphosphoryl)propoxy]-1-fluoro-3-hydroxynaphthalen-2-yl}-1λ^6,2,5-thiadiazolidine-1,1,3-trione], the IC50 fell in the range of 1 to 10 nM.

For the compound `CS(=O)(=O)N1CCC(Oc2ccc3cc(O)c(N4CC(=O)NS4(=O)=O)c(F)c3c2)CC1` [Compound 284, 5-(1-fluoro-3-hydroxy-7-{[1-(methanesulfonyl)piperidin-4-yl]oxy}naphthalen-2-yl)-1λ^6,2,5-thiadiazolidine-1,1,3-trione], the IC50 is 1 to 10 nM.

Consider `CS(=O)(=O)N1CCC(Nc2ccc3cc(O)c(N4CC(=O)NS4(=O)=O)c(F)c3c2)CC1` [Compound 305, 5-(1-fluoro-3-hydroxy-7-{[1-(methanesulfonyl)piperidin-4-yl]amino}naphthalen-2-yl)-1λ^6,2,5-thiadiazolidine-1,1,3-trione], for which the half-maximal inhibitory concentration (IC50) was > 100 nM.

For the compound `CC(C)OCCNc1ccc2cc(O)c(N3CC(=O)NS3(=O)=O)c(F)c2c1` [Compound 172, 5-[1-fluoro-3-hydroxy-7-({2-[(propan-2-yl)oxy]ethyl}amino)naphthalen-2-yl]-1λ^6,2,5-thiadiazolidine-1,1,3-trione], the IC50 is > 100 nM.

`C=C(c1ccc2cc(O)c(N3CC(=O)NS3(=O)=O)c(F)c2c1)c1c(C)c(C)c(C)c(C)c1C` [Compound 241, 5-{1-fluoro-3-hydroxy-7-[1-(pentamethylphenyl)ethenyl]naphthalen-2-yl}-1λ^6,2,5-thiadiazolidine-1,1,3-trione]: the IC50 is > 100 nM.

`CC(C)Oc1ccc2cc(O)c(N3CC(=O)NS3(=O)=O)c(F)c2c1` [Compound 279, 5-{1-fluoro-3-hydroxy-7-[(propan-2-yl)oxy]naphthalen-2-yl}-1λ^6,2,5-thiadiazolidine-1,1,3-trione]: the half-maximal inhibitory concentration (IC50) is > 100 nM.

For the compound `O=C1CN(c2c(O)cc3ccc(OCC4CC(F)(F)C4)cc3c2F)S(=O)(=O)N1` [Compound 235, 5-{7-[(3,3-difluorocyclobutyl)methoxy]-1-fluoro-3-hydroxynaphthalen-2-yl}-1λ^6,2,5-thiadiazolidine-1,1,3-trione], the IC50 was < 1 nM.

Take `COc1ccc2c(F)c(O)c(N3CC(=O)NS3(=O)=O)c(F)c2c1` [Compound 117, 5-(1,4-difluoro-3-hydroxy-7-methoxynaphthalen-2-yl)-1λ^6,2,5-thiadiazolidine-1,1,3-trione]: the half-maximal inhibitory concentration (IC50) is 1 to 10 nM.

For `CC(C)(CN)CCOc1ccc2cc(O)c(N3CC(=O)NS3(=O)=O)c(F)c2c1` [Compound 176, 5-[7-(4-amino-3,3-dimethylbutoxy)-1-fluoro-3-hydroxynaphthalen-2-yl]-1λ^6,2,5-thiadiazolidine-1,1,3-trione], the half-maximal inhibitory concentration (IC50) fell in the range of 1 to 10 nM.

Consider `CC(C)CCNc1ccc2cc(O)c(N3CC(=O)NS3(=O)=O)c(F)c2c1` [Compound 200, 5-{1-fluoro-3-hydroxy-7-[(3-methylbutyl)amino]naphthalen-2-yl}-1λ^6,2,5-thiadiazolidine-1,1,3-trione], for which the concentration for half-maximal inhibition (IC50) was < 1 nM.

Turning to `CCOCCOc1ccc2cc(O)c(N3CC(=O)NS3(=O)=O)c(F)c2c1` [Compound 246, 5-[7-(2-ethoxyethoxy)-1-fluoro-3-hydroxynaphthalen-2-yl]-1λ^6,2,5-thiadiazolidine-1,1,3-trione], the IC50 was > 100 nM.

Consider `O=C1CN(c2c(O)cc3ccc(C4CN(C(=O)C5CC5)C4)cc3c2F)S(=O)(=O)N1` [Compound 207, 5-{7-[1-(cyclopropanecarbonyl)azetidin-3-yl]-1-fluoro-3-hydroxynaphthalen-2-yl}-1λ^6,2,5-thiadiazolidine-1,1,3-trione], for which the 50% inhibitory concentration (IC50) fell in the range of 1 to 10 nM.

Consider `O=C1CN(c2c(O)cc3ccc(OC4COC4)cc3c2F)S(=O)(=O)N1` [Compound 274, 5-{1-fluoro-3-hydroxy-7-[(oxetan-3-yl)oxy]naphthalen-2-yl}-1λ^6,2,5-thiadiazolidine-1,1,3-trione], for which the half-inhibitory concentration (IC50) is 1 to 10 nM.

With `O=C1CN(c2c(O)cc3ccc(OCCn4cccn4)cc3c2F)S(=O)(=O)N1` [Compound 188, 5-{1-fluoro-3-hydroxy-7-[2-(1H-pyrazol-1-yl)ethoxy]naphthalen-2-yl}-1λ^6,2,5-thiadiazolidine-1,1,3-trione], the half-maximal inhibitory concentration (IC50) lay within 1 to 10 nM.

For `O=C1CN(c2c(O)cc3ccc(OC4CC4)cc3c2F)S(=O)(=O)N1` [Compound 223, 5-[7-(cyclopropyloxy)-1-fluoro-3-hydroxynaphthalen-2-yl]-1λ^6,2,5-thiadiazolidine-1,1,3-trione], the 50% inhibitory concentration (IC50) fell in the range of 1 to 10 nM.

For `O=C1CN(c2c(O)cc3ccc(C4=CCN(CC5CC5)C4)cc3c2F)S(=O)(=O)N1` [Compound 242, 5-{7-[1-(cyclopropylmethyl)-2,5-dihydro-1H-pyrrol-3-yl]-1-fluoro-3-hydroxynaphthalen-2-yl}-1λ^6,2,5-thiadiazolidine-1,1,3-trione], the half-maximal inhibitory concentration (IC50) was in the range of 1 to 10 nM.

For the compound `C[C@@H](O)CCCc1ccc2cc(O)c(N3CC(=O)NS3(=O)=O)c(F)c2c1` [Compound 151, 5-{1-fluoro-3-hydroxy-7-[(4R)-4-hydroxypentyl]naphthalen-2-yl}-1λ^6,2,5-thiadiazolidine-1,1,3-trione], the half-maximal inhibitory concentration (IC50) lay within 1 to 10 nM.

Broadly, the IC50 is the concentration that gives 50% inhibition.

The values above are taken from US20230019236A1, “PROTEIN TYROSINE PHOSPHATASE INHIBITORS AND METHODS OF USE THEREOF” (Calico Life Sciences LLC, priority 2019, published 2023).
